Results as given in patent US20130261108A1, “COMPOSITIONS AND METHODS FOR MODULATING FARNESOID X RECEPTORS” (IRM LLC, priority 2010, published 2013).
pEC50: −log10 of the molar value.

Target: T1, human Farnesoid X Receptor (FXR) ligand binding domain (Homo sapiens, UniProt Q96RI1)
T1 construct: purchased Invitrogen
T1 sequence (Q96RI1 193-472 isoform Q96RI1-2): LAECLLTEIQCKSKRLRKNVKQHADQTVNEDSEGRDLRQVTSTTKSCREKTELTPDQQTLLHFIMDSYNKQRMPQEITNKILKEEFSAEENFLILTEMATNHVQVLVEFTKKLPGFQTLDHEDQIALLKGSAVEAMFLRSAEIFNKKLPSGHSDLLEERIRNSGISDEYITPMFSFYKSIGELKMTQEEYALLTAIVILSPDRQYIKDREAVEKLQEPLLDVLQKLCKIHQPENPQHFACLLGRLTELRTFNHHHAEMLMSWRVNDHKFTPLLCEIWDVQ
Experiment: Human GST-FXR LBD co-activator interaction assay (FXR HTRF assay)
Type: biochemical
Details: GST-FXR LBD with biotin-labeled SRC-1 peptide, FRET/HTRF, 2.5 hours at room temperature; response relative to GW4064; read-out: FXR coactivator interaction assay (HTRF) (EC50)
Excerpt: Human GST-FXR LBD Co-Activator Interaction Assay.
The FXR HTRF assay is a biochemical assay measuring the interaction between FXR and a coactivator protein (SRC1). The ligand-induced interaction with a coactivator protein is a critical step in transcriptional activation by FXR. Thus, this is an assay designed to measure FXR agonist activity of compounds.
The ligand-dependent interaction between GST-FXR LBD and a peptide derived from Steroid Receptor Coactivator-1 (SRC-1) was monitored by Fluorescence Resonance Energy Transfer (FRET). […] Test compounds (in DMSO solution) and detection reagents (anti-GST-Cryptate labeled antibody and Streptavidin-XL665 conjugate; CisBio) were added in assay buffer containing 50 mM KF. Plates are incubated at room temperature in the dark for 2.5 hours before reading on an Envision (PerkinElmer) at 665 nm and 590 nm.
A negative control (without Streptavidin-XL665) was run with each assay and represented the background fluorescence. A reference FXR agonist, GW4064, was included in each experiment as positive control. The efficacy of each test compound was compared to that of GW4064. At each concentration, the relative activity of the test compound was expressed as Response %=(Rsample−RDMSO)/(Rpositive−RDMSO), where Rsample is the HTRF response (expressed in Delta F %) for the test compound, Rpositive is the maximal response for GW4064 at saturating concentrations, and RDMSO is the response for DMSO control. The EC50 values were calculated using GraphPad Prism (GraphPad Software) using non-linear regression curve fit (log(agonist) vs. response−variable slope (four parameters)).

pEC50	Structure (SMILES)
6.58	O=C(O)c1ccc2nc(N3CCC(OCc4c(C5CCCC5)noc4C4CC4)CC3)sc2c1 [Example 2-16, 2-{4-[(3-cyclopentyl-5-cyclopropyl-1,2-oxazol-4-yl)methoxy]piperidin-1-yl}-1,3-benzothiazole-6-carboxylic acid]
6.02	CCOC(=O)c1ccc2nc(N3CCC(OCc4c(-c5c(Cl)cccc5Cl)noc4C(C)C)CC3)sc2c1 [Example 4A, Ethyl 2-(4-((3-(2,6-dichlorophenyl)-5-isopropylisoxazol-4-yl)methoxy)piperidin-1-yl)benzo[d]thiazole-6-carboxylate]
8.00	O=C(O)c1ccc2nc(N3CCC(OCc4c(-c5c(Cl)cccc5Cl)noc4C4CC4)CC3)sc2c1 [Example 2-13, 2-(4-{[5-cyclopropyl-3-(2,6-dichlorophenyl)-1,2-oxazol-4-yl]methoxy}piperidin-1-yl)-1,3-benzothiazole-6-carboxylic acid]
7.72	NC(=O)c1ccc2nc(N3CCC(OCc4c(-c5c(Cl)cccc5Cl)noc4C4CC4)CC3)sc2c1 [Example 6-2, 2-(4-((5-cyclopropyl-3-(2,6-dichlorophenyl)isoxazol-4-yl)methoxy)piperidin-1-yl)benzo[d]thiazole-6-carboxamide]
6.37	O=C(O)c1ccc2nc(N3CCC(OCc4c(C5CC6CCC5C6)noc4C4CC4)CC3)sc2c1 (centres unmarked) [Example 2-17, 2-{4-[(3-{bicyclo[2.2.1]heptan-2-yl}-5-cyclopropyl-1,2-oxazol-4-yl)methoxy]piperidin-1-yl}-1,3-benzothiazole-6-carboxylic acid]
6.61	O=C(O)c1ccc2nc(N3CCC(OCc4c(C5CCCCC5C(F)(F)F)noc4C4CC4)CC3)sc2c1 (single isomer, unassigned) [5 (Diastereomer A)]
7.59	Cc1cc(C(=O)O)cc2sc(N3CCC(OCc4c(-c5ccccc5OC(F)F)noc4C4CC4)CC3)nc12 [Example 2-9, 2-[4-({5-cyclopropyl-3-[2-(difluoromethoxy)phenyl]-1,2-oxazol-4-yl}methoxy)piperidin-1-yl]-4-methyl-1,3-benzothiazole-6-carboxylic acid]
7.62	Cc1cc(C(=O)O)cc2sc(N3CCC(OCc4c(-c5ccccc5OC(F)(F)F)noc4C4CC4)CC3)nc12 [Example 2-3, 2-[4-({5-cyclopropyl-3-[2-(trifluoromethoxy)phenyl]-1,2-oxazol-4-yl}methoxy)piperidin-1-yl]-4-methyl-1,3-benzothiazole-6-carboxylic acid]
8.10	O=C(O)c1ccc2nc(N3CCCC(OCc4c(-c5ccccc5C(F)(F)F)noc4C4CC4)CC3)sc2c1 (centres unmarked) [Example 3-2B, 2-[4-({5-cyclopropyl-3-[2-(trifluoromethyl)phenyl]-1,2-oxazol-4-yl}methoxy)azepan-1-yl]-1,3-benzothiazole-6-carboxylic acid]
7.82	Clc1cccc(Cl)c1-c1noc(C2CC2)c1COC1CCN(c2nc3ccc(-c4nn[nH]n4)cc3s2)CC1 [Example 6-3, 4-(((1-(6-(2H-tetrazol-5-yl)benzo[d]thiazol-2-yl)piperidin-4-yl)oxy)methyl)-5-cyclopropyl-3-(2,6-dichlorophenyl)isoxazole]
7.35	O=C(O)c1ccc2nc(N3CCC(OCc4c(-c5ccccc5OC(F)F)noc4C4CC4)CC3)sc2c1 [Example 2-8B, 2-[4-({5-cyclopropyl-3-[2-(difluoromethoxy)phenyl]-1,2-oxazol-4-yl}methoxy)piperidin-1-yl]-1,3-benzothiazole-6-carboxylic acid]
8.40	COc1cc(C(=O)O)cc2sc(N3CCC(OCc4c(-c5ccccc5C(F)(F)F)noc4C4CC4)CC3)nc12 [Example 1-4, 2-(4-((5-cyclopropyl-3-(2-(trifluoromethyl)phenyl)isoxazol-4-yl)methoxy)piperidin-1-yl)-4-methoxybenzo[d]thiazole-6-carboxylic acid]
6.13	CCOC(=O)c1ccc2nc(N3CCC(OCc4c(-c5c(OC)cccc5C(F)(F)F)noc4C4CC4)CC3)sc2c1 [Example 2-7A, ethyl 2-[4-({5-cyclopropyl-3-[2-methoxy-6-(trifluoromethyl)phenyl]-1,2-oxazol-4-yl}methoxy)piperidin-1-yl]-1,3-benzothiazole-6-carboxylate]
7.68	O=C(O)c1cc(F)c2nc(N3CCC(OCc4c(-c5ccccc5OC(F)F)noc4C4CC4)CC3)sc2c1 [Example 2-10, 2-[4-({5-cyclopropyl-3-[2-(difluoromethoxy)phenyl]-1,2-oxazol-4-yl}methoxy)piperidin-1-yl]-4-fluoro-1,3-benzothiazole-6-carboxylic acid]
6.57	NC(=O)c1cc(F)c2nc(N3CCC(OCc4c(-c5ccccc5OC(F)(F)F)noc4C4CC4)CC3)sc2c1 [Example 7-4, 2-[4-({5-cyclopropyl-3-[2-(trifluoromethoxy)phenyl]-1,2-oxazol-4-yl}methoxy)piperidin-1-yl]-4-fluoro-1,3-benzothiazole-6-carboxamide]
8.15	O=C(O)c1ccc2nc(N3CCCC(OCc4c(-c5ccccc5OC(F)(F)F)noc4C4CC4)CC3)sc2c1 (centres unmarked) [Example 3-1B, 2-[4-({5-cyclopropyl-3-[2-(trifluoromethoxy)phenyl]-1,2-oxazol-4-yl}methoxy)azepan-1-yl]-1,3-benzothiazole-6-carboxylic acid]
7.06	O=C(NCCS(=O)(=O)O)c1ccc2nc(N3CCC(OCc4c(-c5ccccc5OC(F)(F)F)noc4C4CC4)CC3)sc2c1 [Example 9, 2-(2-(4-((5-cyclopropyl-3-(2-(trifluoromethoxy)phenyl)isoxazol-4-yl)methoxy)piperidin-1-yl)benzo[d]thiazole-6-carboxamido)ethanesulfonic acid]
5.66	N#Cc1ccc2nc(N3CCC(OCc4c(-c5ccccc5OC(F)(F)F)noc4C4CC4)CC3)sc2c1 [Example 7-1, 2-[4-({5-cyclopropyl-3-[2-(trifluoromethoxy)phenyl]-1,2-oxazol-4-yl}methoxy)piperidin-1-yl]-1,3-benzothiazole-6-carbonitrile]
7.92	COc1cc(C(=O)O)cc2sc(N3CCC(OCc4c(-c5ccccc5OC(F)(F)F)noc4C4CC4)CC3)nc12 [Example 1-2, 2-(4-((5-cyclopropyl-3-(2-(trifluoromethoxy)phenyl)isoxazol-4-yl)methoxy)piperidin-1-yl)-4-methoxybenzo[d]thiazole-6-carboxylic acid]
7.21	O=C(O)c1ccc2sc(N3CCC(OCc4c(-c5ccccc5OC(F)(F)F)noc4C4CC4)CC3)nc2c1 [Example 2-1, 2-[4-({5-cyclopropyl-3-[2-(trifluoromethoxy)phenyl]-1,2-oxazol-4-yl}methoxy)piperidin-1-yl]1,3-benzothiazole-5-carboxylic acid]
6.08	N#Cc1ccc2nc(N3CCC(OCc4c(-c5c(F)cccc5Cl)noc4C4CC4)CC3)sc2c1 [Example 7-5, 2-(4-{[3-(2-chloro-6-fluorophenyl)-5-cyclopropyl-1,2-oxazol-4-yl]methoxy}piperidin-1-yl)-1,3-benzothiazole-6-carbonitrile]
6.12	CCOC(=O)c1ccc2nc(N3CCC(OCc4c(-c5ccccc5C(F)(F)F)noc4C4CC4)CC3)sc2c1 [Example 2-5A, ethyl 2-[4-({5-cyclopropyl-3-[2-(trifluoromethyl)phenyl]-1,2-oxazol-4-yl}methoxy)piperidin-1-yl]-1,3-benzothiazole-6-carboxylate]
8.15	CC(C)c1onc(-c2c(Cl)cccc2Cl)c1COC1CCN(c2nc3ccc(C(=O)O)cc3s2)CC1 [Example 4B, 2-(4-((3-(2,6-Dichlorophenyl)-5-isopropylisoxazol-4-yl)methoxy)piperidin-1-yl)benzo[d]thiazole-6-carboxylic acid]
6.38	CCOC(=O)c1ccc2nc(N3CCCC(OCc4c(-c5ccccc5C(F)(F)F)noc4C4CC4)CC3)sc2c1 (centres unmarked) [Example 3-2A, ethyl 2-[4-({5-cyclopropyl-3-[2-(trifluoromethyl)phenyl]-1,2-oxazol-4-yl}methoxy)azepan-1-yl]-1,3-benzothiazole-6-carboxylate]
7.51	O=C(O)c1ccc2nc(N3CCC(OCc4c(-c5c(F)cccc5F)noc4C4CC4)CC3)sc2c1 [Example 2-14, 2-(4-{[5-cyclopropyl-3-(2,6-difluorophenyl)-1,2-oxazol-4-yl]methoxy}piperidin-1-yl)-1,3-benzothiazole-6-carboxylic acid]
6.61	CCOC(=O)c1ccc2nc(N3CCCC(OCc4c(-c5ccccc5OC(F)(F)F)noc4C4CC4)CC3)sc2c1 (centres unmarked) [Example 3-1A, ethyl 2-[4-({5-cyclopropyl-3-[2-(trifluoromethoxy)phenyl]-1,2-oxazol-4-yl}methoxy)azepan-1-yl]-1,3-benzothiazole-6-carboxylate]
